Assay results taken from patent US8859541B2, “6-alkynylpyridines” (Boehringer Ingelheim International GmbH, priority 2012, dated 2014).

Each compound was assayed against T1, XIAP BIR3 (Homo sapiens, UniProt P98170) (assay: XIAP BIR3 binding assay (DELFIA), displacement of SMAC peptide). Conditions: GST-fusion BIR3 domain (aa 241 to 356) 10 nM, SMAC peptide 10 nM; activity of the (S)-isomers.
T1 construct: covering amino acids 241 to 356; XIAP BIR3; made in house; host or cells: E. coli
Experimental: Biological Methods XIAP BIR3 and cIAP1 BIR3 Binding Assays (DELFIA)
Peptide […]-Lys(Biotin), representing the N-terminus of mature human SMAC (SMAC peptide), was used as interaction partner in the protein-peptide interaction assay.
BIR3 domains (10 nM) were incubated with SMAC peptide (10 nM) in Assay Buffer (50 mM Tris, 120 mM NaCl, 0.1% BSA, 1 mM DTT, 0.05% TritonX100) for one hour at room temperature in the presence of inhibitiory compounds. The assay mixture was transferred to a strepatvidin coated plate and incubated for one hour at room temperature to allow binding of the biotinylated peptide and associated BIR3 domains to the plate. After several washing steps Eu labeled anti-GST antibody (e.g. Perkin Elmer DELFIA Eu-N1-antiGST AD0250) was added to detect BIR3 domain-SMAC peptide interactions according to Perkin Elmer's instructions. […] Time resolved Europium fluoresecence was measured in a Wallac Victor using Standard assay settings.
DELFIA assay results were plotted against compound concentrations and Software GraphPad Prizm was used to calculate half maximal inhibitory concentrations (IC50 values).

T1 sequence (P98170 241-356): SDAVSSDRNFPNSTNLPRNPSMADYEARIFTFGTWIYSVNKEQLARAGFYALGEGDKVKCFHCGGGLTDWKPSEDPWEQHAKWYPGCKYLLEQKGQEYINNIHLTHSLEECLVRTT

Compound	IC50 [µM]
CNC(C)C(=O)Nc1ccc(-c2cnc3ccc(C#N)cn23)c(C#Cc2ccc3cnccc3c2)n1 (stereo not shown) [Example 40, N-[5-(6-cyanoimidazo[1,2-a]-pyridin-3-yl)-6-(2-isoquinolin-6-ylethynyl)pyridin-2-yl]-2-(methylamino)propanamide]	0.445
CNC(C)C(=O)Nc1ccc(-c2c(C)nc3ccccn23)c(C#Cc2ccc3cc(F)ccc3c2)n1 (stereo not shown) [Example 51, N-[6-[2-(6-fluoronaphthalen-2-yl)ethynyl]-5-(2-methyl-imidazo[1,2-a]pyridin-3-yl)-pyridin-2-yl]-2-(methylamino)-propanamide]	0.453
CNC(C)C(=O)Nc1ccc(-c2c(Cl)cncc2Cl)c(C#Cc2ccc3ncccc3c2)n1 (stereo not shown) [Example 56, N-[5-(3,5-dichloropyridin-4-yl)-6-(2-quinolin-6-ylethynyl)-pyridin-2-yl]-2-(methylamino)-propanamide]	2.88
CNC(C)C(=O)Nc1ccc(-c2cnc(SC)nc2C#N)c(C#Cc2ccc3cnccc3c2)n1 (stereo not shown) [Example 59, N-[5-(4-cyano-2-methylsulfanylpyrimidin-5-yl)-6-(2-isoquinolin-6-ylethynyl)-pyridin-2-yl]-2-(methylamino)-propanamide]	0.918
CNC(=O)c1ccc(C#Cc2nc(NC(=O)C(C)NC)ccc2-c2c(C)nc3ccccn23)cn1 (stereo not shown) [Example 62, N-methyl-5-[2-[6-[[2-(methyl-amino)propanoyl]amino]-3-(2-methylimidazo[1,2-a]pyridin-3-yl)pyridin-2-yl]ethynyl]pyridine-2-carboxamide]	0.62
CNC(C)C(=O)Nc1ccc(-c2c(C)nc3ccccn23)c(C#Cc2ccc(-c3ccc(OC)cc3)cc2)n1 (stereo not shown) [Example 65, N-[6-[2-[4-(4-methoxyphenyl)-phenyl]ethynyl]-5-(2-methyl-imidazo[1,2-a]pyridin-3-yl)-pyridin-2-yl]-2-(methylamino)-propanamide]	1.19
CNC(C)C(=O)Nc1ccc(-c2c(C)nc3ccccn23)c(C#Cc2ccc3nc(OC)ccc3c2)n1 (stereo not shown) [Example 73, N-[6-[2-(2-methoxyquinolin-6-yl)ethynyl]-5-(2-methyl-imidazo[1,2-a]pyridin-3-yl)-pyridin-2-yl]-2-(methylamino)-propanamide]	0.378
CNC(C)C(=O)Nc1ccc(-c2c(C)nc(N(C)C)nc2C)c(C#Cc2ccc3ncccc3c2)n1 (stereo not shown) [Example 76, N-[5-[2-(dimethylamino)-4,6-dimethylpyrimidin-5-yl]-6-(2-quinolin-6-ylethynyl)pyridin-2-yl]-2-(methylamino)propan-amide]	1.07
CNC(C)C(=O)Nc1ccc(-c2c(C)nc(N3CCOCC3)nc2C)c(C#Cc2ccc3cnccc3c2)n1 (stereo not shown) [Example 83, N-[5-(4,6-dimethyl-2-morpholin-4-ylpyrimidin-5-yl)-6-(2-isoquinolin-6-ylethynyl)-pyridin-2-yl]-2-(methylamino)-propanamide]	0.446
CNC(C)C(=O)Nc1ccc(-c2c(C)nc(N3CCOCC3)nc2C)c(C#Cc2ccc(-c3cccnc3)cc2)n1 (stereo not shown) [Example 86, N-[5-(4,6-dimethyl-2-morpholin-4-ylpyrimidin-5-yl)-6-[2-(4-pyridin-3-ylphenyl)-ethynyl]pyridin-2-yl]-2-(methyl-amino)propanamide]	0.77
CNC(C)C(=O)Nc1ccc(-c2c(C)noc2C)c(C#Cc2ccc3cnccc3c2)n1 (stereo not shown) [Example 97, N-[5-(3,5-dimethyl-1,2-oxazol-4-yl)-6-(2-isoquinolin-6-ylethynyl)pyridin-2-yl]-2-(methylamino)propanamide]	0.644
CNC(C)C(=O)Nc1ccc(-c2cnc3ccccc3c2)c(C#Cc2ccc3ccccc3c2)n1 (stereo not shown) [Example 98, 2-(methylamino)-N-[6-(2-naphthalen-2-ylethynyl)-5-quinolin-3-yl-pyridin-2-yl]propanamide]	0.526
CC(N)C(=O)Nc1ccc(-c2cccc(C(=O)O)c2)c(C#Cc2ccccc2)n1 (stereo not shown) [Example 99, 3-[6-(2-aminopropanoylamino)-2-(2-phenylethynyl)pyridin-3-yl]-benzoic acid]	0.521
CC(N)C(=O)Nc1ccc(-c2ccccc2F)c(C#Cc2ccccc2)n1 (stereo not shown) [Example 102, 2-amino-N-[5-(2-fluorophenyl)-6-(2-phenylethynyl)pyridin-2-yl]-propanamide]	1.98
CC(N)C(=O)Nc1ccc(-c2c(Cl)cccc2Cl)c(C#Cc2ccccc2)n1 (stereo not shown) [Example 103, 2-amino-N-[5-(2,6-dichlorophenyl)-6-(2-phenyl-ethynyl)pyridin-2-yl]propanamide]	3.04
Cc1cccc(C)c1-c1ccc(NC(=O)C(C)N)nc1C#Cc1ccccc1 (stereo not shown) [Example 104, 2-amino-N-[5-(2,6-dimethyl-phenyl)-6-(2-phenylethynyl)-pyridin-2-yl]propanamide]	2.02

Compounds with a lower IC50, results first:

IC50 [µM]	Compound
0.31	CNC(C)C(=O)Nc1ccc(-c2c(C)nc3ccccn23)c(C#Cc2ccc3c(Cl)nccc3c2)n1 (stereo not shown) [Example 43, N-[6-[2-(1-chloroisoquinolin-6-yl)ethynyl]-5-(2-methyl-imidazo[1,2-a]pyridin-3-yl)-pyridin-2-yl]-2-(methylamino)-propanamide]
0.31	CNC(C)C(=O)Nc1ccc(-c2c(C)nc3ccccn23)c(C#Cc2ccc(-c3ccncn3)cc2)n1 (stereo not shown) [Example 55, 2-(methylamino)-N-[5-(2-methylimidazo[1,2-a]pyridin-3-yl)-6-[2-(4-pyrimidin-4-ylphenyl)ethynyl]pyridin-2-yl]-propanamide]
0.27	CNC(C)C(=O)Nc1ccc(-c2c(C)nc3ccccn23)c(C#Cc2nc3ccccc3s2)n1 (stereo not shown) [Example 67, N-[6-[2-(1,3-benzothiazol-2-yl)-ethynyl]-5-(2-methyl-imidazo[1,2-a]pyridin-3-yl)-pyridin-2-yl]-2-(methylamino)-propanamide]
0.165	CNC(C)C(=O)Nc1ccc(-c2c(C)nc3cnccn23)c(C#Cc2ccc3ncccc3c2)n1 (stereo not shown) [Example 68, 2-(methylamino)-N-[5-(2-methylimidazo[1,2-a]pyrazin-3-yl)-6-(2-quinolin-6-ylethynyl)-pyridin-2-yl]propanamide]
0.13	CNC(C)C(=O)Nc1ccc(-c2c(C)nc3ccccn23)c(C#Cc2ccc(F)c3ncccc23)n1 (stereo not shown) [Example 84, N-[6-[2-(8-fluoroquinolin-5-yl)-ethynyl]-5-(2-methyl-imidazo[1,2-a]pyridin-3-yl)-pyridin-2-yl]-2-(methylamino)-propanamide]
0.259	CNC(C)C(=O)Nc1ccc(-c2c(C)nc3ccccn23)c(C#Cc2ccc(OC)c3ncccc23)n1 (stereo not shown) [Example 85, N-[6-[2-(8-methoxyquinolin-5-yl)ethynyl]-5-(2-methyl-imidazo[1,2-a]pyridin-3-yl)-pyridin-2-yl]-2-(methylamino)-propanamide]
0.267	CNC(C)C(=O)Nc1ccc(-c2c(C)nc3ccccn23)c(C#Cc2ccc(-c3ccncc3)cc2)n1 (stereo not shown) [Example 91, 2-(methylamino)-N-[5-(2-methylimidazo[1,2-a]pyridin-3-yl)-6-[2-(4-pyridin-4-ylphenyl)-ethynyl]pyridin-2-yl]propan-amide]
0.128	CC(N)C(=O)Nc1ccc(-c2cccnc2)c(C#Cc2ccccc2)n1 (stereo not shown) [Example 101, 2-amino-N-[6-(2-phenylethynyl)-5-pyridin-3-ylpyridin-2-yl]-propanamide]
0.22	CC(N)C(=O)Nc1ccc(-c2cncnc2)c(C#Cc2ccccc2)n1 (stereo not shown) [Example 105, 2-amino-N-[6-(2-phenylethynyl)-5-pyrimidin-5-ylpyridin-2-yl]-propanamide]
